The values below come from patent US5523314A, “Compounds useful as hypoglycemic agents and for treating Alzheimer's disease” (priority 1994, dated 1996).

One test concerns the target T1, Human liver cathepsin D (Homo sapiens, UniProt P07339).
T1 construct: purchased Athens Research and Technology, Athens, Ga; host or cells: human liver
Nature of the test: Cathepsin D inhibition, fluorometric assay (Tables 5 and 6). Format: biochemical. The settings on record: for inhibition at 4.15 µg/mL (stock): Compound Stock Concentration 4.15 μg/ml. The procedure: Human liver cathepsin D (Athens Research and Technology, Athens, Ga.) was diluted in assay buffer, 200 mM NaOAc, pH 4.5, 150 mM NaCl to 500 ng/mL and then 100 μL of this cathepsin D solution was added to each well of a 96 well plate with the exception of control wells which received just 100 μL of assay buffer. […] Blank and enzyme control wells each received 5 μL of the DMSO vehicle.
After incubation at 37° C. for 30 minutes, cathepsin D activity was terminated by the addition of 100 μL per well of 400 mU/mL microsomal leucine aminopeptidase (EC 3.4.11.2, Sigma, St. Louis, Mo.) in 1M Tris-HCl, pH 8.0.
Following a two hour incubation at 37° C., to allow the aminopeptidase to release the fluorophore, 7-amido-4-methylcoumarin (AMC) from the products of cathepsin D cleavage, the plates were again analyzed in the fluorometer. In order to check for potential false positives, i.e., inhibitors of microsomal leucine aminopeptidase, residual aminopeptidase activity was monitored directly in each well by the addition of 20 μL/well of 2.5 mM Leu-pNA (Bachem Biosciences, Philadelphia, Pa.) in 10% DMSO.

Test [1] deals with blood glucose level. In words: Hypoglycemic activity in normal fed rats (Table 2). Format: in vivo, male Sprague Dawley rats. Particulars: Rattus norvegicus. The procedure: The procedure used in this test system is described below.
The desired dose level of each test formulation was administered to four rats by oral […] at the beginning of the experiment. Blood glucose levels were determined immediately before the first dose and at 3 and 5 hours thereafter by an enzymatic procedure employing glucose oxidase and peroxidase coupled with a chromogenic oxygen acceptor. A mean was taken of the 4 values obtained before the first dose and at the 3 and 5 hour intervals.

Test [2] relates to blood glucose level. Nature of the test: Hypoglycemic activity in obese diabetic mice (Table 1). Particulars: Mus musculus, ip. The test is classed as in vivo, male viable yellow obese-diabetic mice. The procedure:
The hypoglycemic activity of the compounds of the present invention was determined by testing the efficacy of the compounds in vivo in male viable yellow obese-diabetic mice. The test procedure is described in detail below.
Test formulations were prepared by dissolving the test compound in a saline solution containing 2% Emulphor (a polyoxyethylated vegetable oil surfactant from GAP Corp.) to provide the dose level desired. Each test formulation was administered to six viable yellow obese-diabetic mice intraperitoneally at the beginning of the experiment. Blood glucose levels were determined immediately before the first dose and at 2 and 4 hours thereafter using glucose oxidase. A mean was taken of the 6 values obtained before the first dose and at the 2 and 4 hour intervals. In Table 1, Column 1 provides the example number of the test compound, Column 2 provides the dose level of compound tested, and Columns 3 and 4 provide a measurement of the test animal's blood glucose level 2 and 4 hours after test compound administration, respectively, as a percentage of the test animal' s pre-administration blood glucose level.

Where [3] appears, read: 200 mg/kg, oral, 3 hrs, read-out: Percent of Initial Blood Glucose Level After 3 hrs.
Setting [4] is: 200 mg/kg, oral, 5 hrs, read-out: Percent of Initial Blood Glucose Level After 5 hrs.
The mark [5] stands for this setting: 4 h, intraperitoneal, 4 hrs, read-out: Percent of Initial Blood Glucose Level After 4 hrs.
Setting [6] is: 2 h, intraperitoneal, 2 hrs, read-out: Percent of Initial Blood Glucose Level After 2 hrs.
Setting [7] is: oral, 3 hrs, read-out: Percent of Initial Blood Glucose Level After 3 hrs.
[8] abbreviates: oral, 5 hrs, read-out: Percent of Initial Blood Glucose Level After 5 hrs.
Setting [9] is: intraperitoneal, 2 hrs, read-out: Percent of Initial Blood Glucose Level After 2 hrs.
Setting [10] is: intraperitoneal, 4 hrs, read-out: Percent of Initial Blood Glucose Level After 4 hrs.

Counter-ions that a name gives are not always drawn. Like-named read-outs stand apart in the source and are kept apart here.

T1 sequence (P07339 169-412 limits assumed): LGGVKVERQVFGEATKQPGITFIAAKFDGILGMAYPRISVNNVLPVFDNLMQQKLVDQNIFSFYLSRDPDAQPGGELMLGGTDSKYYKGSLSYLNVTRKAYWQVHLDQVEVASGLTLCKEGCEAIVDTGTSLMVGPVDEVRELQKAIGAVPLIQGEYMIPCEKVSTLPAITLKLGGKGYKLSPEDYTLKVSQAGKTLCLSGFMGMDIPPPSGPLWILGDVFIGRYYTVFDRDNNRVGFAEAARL
T1 sequence (P07339 65-161 limits assumed): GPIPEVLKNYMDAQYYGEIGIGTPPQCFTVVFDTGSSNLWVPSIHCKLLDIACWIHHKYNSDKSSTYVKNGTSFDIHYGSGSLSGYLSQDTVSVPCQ

Usually IC50 stands for the concentration that inhibits the measured activity by half. Low values mean greater potency, high ones weaker potency. Usually inhibition stands for the percentage by which the read-out fell short of the control. The low end stands for little suppression, the high end for strong suppression. For `CCCCCCCCOc1ccc(C=C2SC(=S)NC2=O)cc1OC` [Example 69, 5-[(3-methoxy-4-octoxyphenyl)methylene]-2-thioxo-4-thiazolidinone], on Human liver cathepsin D, inhibition was half-maximal at 2.1 µM (IC50) and the inhibition at 4.15 µg/mL (stock) stood at 51%. In addition, in the test on blood glucose level [1] (setting [3]), the response vs control in vivo at 200 mg/kg came out at 93%. In the test on blood glucose level [1] (setting [4]), the response vs control in vivo at 200 mg/kg worked out at 88%.

As to `CCCCCCOc1ccc(C=C2SC(=S)NC2=O)cc1OC` [Example 68, 5-[(3-methoxy-4-hexoxyphenyl)methylene]-2-thioxo-4-thiazolidinone], on Human liver cathepsin D, 10.2 µM corresponded to half-maximal inhibition (IC50) and the inhibition at 4.15 µg/mL (stock) turned out to be 53.7%. For the same compound, in the test on blood glucose level [1] (setting [3]), the response vs control in vivo at 200 mg/kg turned out to be 88%. In the test on blood glucose level [1] (setting [4]), the response vs control in vivo at 200 mg/kg stood at 89%.

With `CCCCCOc1ccc(C=C2SC(=S)NC2=O)cc1OC` [Example 57, 5-[(3-methoxy-4-pentoxyphenyl)methylene]-2-thioxo-4-thiazolidinone sodium salt], the response vs control in vivo at 200 mg/kg came to 84% in the test with blood glucose level [1] (po, 3 h, read-out: Percent of Initial Blood Glucose Level After 3 hrs.) and 73% in the test on blood glucose level [1] (po, 5 h, read-out: Percent of Initial Blood Glucose Level After 5 hrs.). Also, the response vs control in vivo at 5 mg/kg in the test on blood glucose level [2] (2 h, read-out: Percent of Initial Blood Glucose Level After 2 hrs., 5 mg/kg, intraperitoneal, 2 hrs) stood at 82 ± 6%; in the test with blood glucose level [2] (4 h, read-out: Percent of Initial Blood Glucose Level After 4 hrs., 5 mg/kg, intraperitoneal, 4 hrs), 68 ± 5%. The response vs control in vivo at 10 mg/kg worked out at 95 ± 3% with blood glucose level [2] (2 h, read-out: Percent of Initial Blood Glucose Level After 2 hrs., 10 mg/kg, intraperitoneal, 2 hrs) and 87 ± 6% in the test on blood glucose level [2] (4 h, read-out: Percent of Initial Blood Glucose Level After 4 hrs., 10 mg/kg, intraperitoneal, 4 hrs).

As to `CCCOc1ccc(C=C2SC(=S)NC2=O)cc1` [Example 61, 5-[(4-propoxyphenyl)methylene]-2-thioxo-4-thiazolidinone], the response vs control in vivo at 200 mg/kg in the test on blood glucose level [1] (setting [3]) came to 89%; in the test on blood glucose level [1] (setting [4]), 82%. The response vs control in vivo at 50 mg/kg with blood glucose level [2] (setting [5]) is 61 ± 5%.

As to `CCOc1cc(C=C2SC(=S)NC2=O)ccc1OC` [Example 58, 5-[(3-ethoxy-4-methoxyphenyl)methylene]-2-thioxo-4-thiazolidinone], the response vs control in vivo at 200 mg/kg in the test on blood glucose level [1] (setting [3]) and in the test on blood glucose level [1] (setting [4]) was 100% each time. The response vs control in vivo at 50 mg/kg with blood glucose level [2] (setting [6]) was 67 ± 2%; in the test on blood glucose level [2] (setting [5]), 75 ± 5%.

As for `O=C1NC(=S)SC1=Cc1ccco1` [Example 15, 5-[(2-furanyl)methylene]-2-thioxo-4-thiazolidinone], the values for the response vs control in vivo at 167 mg/kg in the test on blood glucose level [1] (setting [7]) and with blood glucose level [1] (setting [8]) were 84% and 87%, respectively. Moreover, the response vs control in vivo at 50 mg/kg came to 73 ± 5% in the test on blood glucose level [2] (setting [6]) and 62 ± 4% in the test with blood glucose level [2] (setting [5]).

Turning to `COc1ccccc1C=C1SC(=S)NC1=O` [Example 26, 5-[(2-methoxyphenyl)methylene]-2-thioxo-4-thiazolidinone], the response vs control in vivo at 200 mg/kg in the test on blood glucose level [1] (setting [3]) and with blood glucose level [1] (setting [4]) was 100% in each case. The response vs control in vivo at 50 mg/kg in the test with blood glucose level [2] (setting [6]) stood at 80 ± 4%; in the test on blood glucose level [2] (setting [5]), 75 ± 2%.

For the compound `CCOc1ccc(C=C2SC(=S)NC2=O)cc1OC` [Example 48, 5-[(3-methoxy-4-ethoxyphenyl)methylene]-2-thioxo-4-thiazolidinone], the figures for the response vs control in vivo at 167 mg/kg in the test on blood glucose level [1] (setting [7]) and in the test on blood glucose level [1] (setting [8]) were 87% and 81%, respectively. Besides, the response vs control in vivo at 25 mg/kg with blood glucose level [2] (setting [6]) was 87 ± 4%; in the test on blood glucose level [2] (setting [5]), 81 ± 5%. The response vs control in vivo at 50 mg/kg was found to be 70 ± 3% in the test on blood glucose level [2] (setting [6]) and 65 ± 3% with blood glucose level [2] (setting [5]).

For `O=C1NC(=S)SC1=Cc1ccncc1` [Example 16, 5-[(4-pyridyl)methylene]-2-thioxo-4-thiazolidinone], the response vs control in vivo at 200 mg/kg in the test on blood glucose level [1] (setting [3]) was found to be 92%; with blood glucose level [1] (setting [4]), 79%. In addition, the response vs control in vivo at 50 mg/kg in the test on blood glucose level [2] (setting [6]) turned out to be 94 ± 8%; with blood glucose level [2] (setting [5]), 96 ± 9%.

As to `CCCOc1ccc(C=C2SC(=S)NC2=O)cc1OCC` [Example 49, 5-[(3-ethoxy-4-propoxyphenyl)methylene]-2-thioxo-4-thiazolidinone], the response vs control in vivo at 200 mg/kg was 100% in the test with blood glucose level [1] (setting [3]) and 98% in the test on blood glucose level [1] (setting [4]). Moreover, the results for the response vs control in vivo at 50 mg/kg in the test on blood glucose level [2] (setting [6]) and in the test on blood glucose level [2] (setting [5]) were 83 ± 5% and 77 ± 7%, respectively.

Regarding `CCOc1cc(C=C2SC(=S)NC2=O)ccc1O` [Example 32, 5-[(3-ethoxy-4-hydroxyphenyl)methylene]-2-thioxo-4-thiazolidinone], the inhibition at 4.15 µg/mL (stock) at Human liver cathepsin D was 75%. Also, the response vs control in vivo at 200 mg/kg turned out to be 100% in the test on blood glucose level [1] (setting [3]) and 96% with blood glucose level [1] (setting [4]). Besides, the response vs control in vivo at 50 mg/kg with blood glucose level [2] (setting [6]) was found to be 75 ± 4%; with blood glucose level [2] (setting [5]), 80 ± 8%.

`COc1cccc(C=C2SC(=S)NC2=O)c1` [Example 25, 5-[(3-methoxyphenyl)methylene]-2-thioxo-4-thiazolidinone]: the response vs control in vivo at 200 mg/kg in the test with blood glucose level [1] (setting [3]) and in the test with blood glucose level [1] (setting [4]) was 100% throughout. Further, the values for the response vs control in vivo at 25 mg/kg in the test on blood glucose level [2] (setting [9]) and with blood glucose level [2] (setting [10]) were 84 ± 5% and 87 ± 6%, respectively. The figures for the response vs control in vivo at 50 mg/kg in the test on blood glucose level [2] (setting [9]) and in the test with blood glucose level [2] (setting [10]) were 78 ± 4% and 74 ± 4%, respectively.

The compound `COc1cc(C=C2SC(=S)NC2=O)cc(OC)c1O` [Example 63, 5-[(3,5-dimethoxy-4-hydroxyphenyl)methylene]-2-thioxo-4-thiazolidinone] had an inhibition at 4.15 µg/mL (stock) on Human liver cathepsin D of 53%. Besides, the response vs control in vivo at 200 mg/kg in the test on blood glucose level [1] (setting [3]) stood at 69%; in the test with blood glucose level [1] (setting [4]) it was 52%.

Turning to `CCCCOc1ccc(C=C2SC(=S)NC2=O)cc1OC` [Example 41, 5-[(3-methoxy-4-butoxyphenyl)methylene]-2-thioxo-4-thiazolidinone], the response vs control in vivo at 160 mg/kg stood at 76% in the test on blood glucose level [1] (setting [7]) and 67% in the test with blood glucose level [1] (setting [8]). Moreover, the response vs control in vivo at 5 mg/kg in the test with blood glucose level [2] (2 h, 5 mg/kg, intraperitoneal, 2 hrs, read-out: Percent of Initial Blood Glucose Level After 2 hrs.) is 93 ± 10%. For the same compound, the response vs control in vivo at 10 mg/kg with blood glucose level [2] (2 h, 10 mg/kg, intraperitoneal, 2 hrs, read-out: Percent of Initial Blood Glucose Level After 2 hrs.) is 80 ± 7%. Also, in the test on blood glucose level [2] (setting [6]), the response vs control in vivo at 50 mg/kg was 61 ± 3%.

For the compound `COc1cc(C=C2SC(=S)NC2=O)cc(OC)c1OC` [Example 17, 5-[(3,4,5-trimethoxyphenyl)methylene]-2-thioxo-4-thiazolidinone], the response vs control in vivo at 200 mg/kg with blood glucose level [1] (setting [3]) was found to be 78%; in the test on blood glucose level [1] (setting [4]), 68%. Besides, the response vs control in vivo at 50 mg/kg worked out at 88 ± 8% with blood glucose level [2] (setting [6]) and 89 ± 10% in the test on blood glucose level [2] (setting [5]).
